{"source": "paper PMC2568955", "about": "“Structures of SRP54 and SRP19, the Two Proteins that Organize the Ribonucleic Core of the Signal Recognition Particle from Pyrococcus furiosus” (PLoS ONE, 2008)", "target": "T1, Pfu-SRP54 (Pyrococcus furiosus, UniProt Q8U070)", "T1 construct": "full-length, pET28b, thrombin-cleavable His6 tag removed, E. coli BL21(DE3)-Rosetta2; free of SRP RNA and SRP19; two monomers per asymmetric unit (non-crystallographic dimer); finger loop L346-I365 disordered", "T1 sequence (Q8U070 1-443)": "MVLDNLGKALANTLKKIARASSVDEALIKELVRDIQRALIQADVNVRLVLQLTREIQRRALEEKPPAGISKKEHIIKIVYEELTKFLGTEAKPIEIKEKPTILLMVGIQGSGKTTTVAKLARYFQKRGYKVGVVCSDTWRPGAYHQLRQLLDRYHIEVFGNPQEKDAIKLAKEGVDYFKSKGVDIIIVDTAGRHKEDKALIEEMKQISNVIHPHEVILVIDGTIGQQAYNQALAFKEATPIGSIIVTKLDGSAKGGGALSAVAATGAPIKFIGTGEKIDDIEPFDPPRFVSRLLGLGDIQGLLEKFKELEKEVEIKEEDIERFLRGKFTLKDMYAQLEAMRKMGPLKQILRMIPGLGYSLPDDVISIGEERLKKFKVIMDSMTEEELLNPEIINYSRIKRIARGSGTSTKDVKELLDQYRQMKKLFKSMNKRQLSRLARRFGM", "test": "X-ray crystal structure, […] Å", "assay_type": "binding", "conditions": "co-crystallised with 10 mM GDP; 1.0-1.3 M lithium sulfate, 100 mM sodium acetate pH 5.0; room temperature; GTPase active site in G domain, no clear Mg ion"}
{"compound": "Nc1nc2c(ncn2[C@@H]2O[C@H](COP(=O)(O)OP(=O)(O)O)[C@@H](O)[C@H]2O)c(=O)[nH]1", "note": "[GDP]", "values": [{"measurement": "X-ray crystal structure, 2.5 Å", "value": "Pfu-SRP54 was co-crystallized in presence of GDP, and the nucleotide is clearly identified"}]}
